These results are taken from US20050261306A1, “Anti-neurodegenerative agents” (priority 2002, published 2005).

The subject of one assay is NAIP. As to the kind of experiment: NAIP production by western blotting in retinoic acid treated H-SY5Y cells (Example 2). In kind it is cell-based. The following applies: low or high concentration of retinoic acid, 30 μl/ml of 10 mM candidate compound solution, one day, vs controls (lanes 1 and 3). The method, then:
• (1) 3 ml/well of DMEM-HG medium containing H-SY5Y cells (ATCC CRL 2266 strain obtained from American Type Culture Collection; 1×10^5 cells/ml), 10% fetal bovine serum (FBS), 100 units/ml penicillin, and 100 μg/ml streptomycin was aliquoted into each well of a 6 well plate, and incubated for two days at 37° C. Either 3 μl/well (lane 2) or 15 μl/well (lane 4) of all-trans retinoic acid (2 mM) was then added to each well. Wells were then incubated for tree days at 37° C. • (2) Next, 30 μl/ml of candidate compound solution (10 mM) was added to each well and incubated for one day at 37° C. After incubation, each well was washed with 0.25 M NaCl, then filled with 10% trichloroacetic acid (TCA) on ice, and kept on ice for ten minutes. Cells were collected with a scrap and centrifuged (14,000 rpm, ten minutes, 4° C.). To prepare the samples for electrophoresis, 100 μl of urea TX solution (9 M urea solution containing 2% Triton X-100 and 5% 2-mercaptoethanol), 25 μl of 10% lithium dodecyl sulfate (LDS) solution, and 2 μl of 2M Tris solution were added to the obtained pellets. The samples were stored at −80° C. • (3) The samples for electrophoresis obtained in (2) were homogenized and then 10 μl of each sample was loaded onto READYGELSJ (Bio Rad Laboratories) and electrophoresed at 120 V for 75 minutes to conduct SDS-PAGE. […]

Another assay deals with Mongolian gerbils. As to the kind of experiment: Mongolian gerbil common carotid artery occlusion, hippocampus CA1 region histology (Examples 6-1 to 6-4). In kind it is in vivo. The following applies: oral, 8, 40, 80 or 240 mg; carotid arteries occluded for ten minutes; hematoxylin-eosin sections. The method, then:
A candidate compound was dissolved in physiological saline solution to prepare a 100 mM solution with the pH adjusted to 3 to 4 with 1 N NaOH as necessary. This solution was stored. The solution was diluted with physiological saline at time of use to prepare 0.5 ml of a solution containing 8 mg (Example 6-1), 40 mg (Example 6-2), 80 mg (Example 6-3), or 240 mg (Example 6-4) of a candidate compound. The above solution was administered to Mongolian gerbils. In Examples 6-1 to 6-3, 0.5 ml of the above solution was orally administered every 24 hours. In Example 6-4 the solutions was administered once.
Two hours after the second administration in Examples 6-1 to 6-3, both Mongolian gerbil common carotid arteries were occluded for ten minutes. The gerbils were sacrificed five days later. Two hours after administration in Example 6-4, both Mongolian gerbil common carotid arteries were occluded for ten minutes, and the gerbils were sacrificed three days later. Hematoxylin-eosin stained cross-sections of the brain hippocampus CA1 region tissue were prepared, and the stained sections were expand. […]

The next assay concerns ALS model mice. Description: Therapeutic effect in ALS model mice (Cu/Zn-SOD gene transgenic mouse) (Example 7). Type of assay: in vivo. The method, then:
The in vivo therapeutic effect of compound 1 was examined using an Amyotrophic Lateral Sclerosis (ALS) model animal.
A Cu/Zn-SOD gene transgenic mouse (Saishin Igaku, Vol. 57 (7), “new Amyotrophic Lateral Sclerosis (ALS) model animals”, July, 2002: p. 1622-1627: obtained from Dr. Masashi Aoki at Tohoku University, School of Medicine, Neurology) was used. The ALS model mice were divided into three groups (physiological saline administered group, compound 1 (8 mg/kg) administered group, compound 1 (40 mg/kg) administered group). Physiological saline, compound 1 (8 mg/kg), and compound 1 (40 mg/kg) were orally administered to each ALS mouse once a day from about 7 days before the predicted day of the symptom development (138-139 days after birth) until the day the mice died.

The next assay concerns HeLa cells. As to the kind of experiment: Cell-death suppressing effect in HeLa cells with cell-death inducing agent, Alamar Blue viable cell count (Example 3). Type of assay: cell-based. Conditions: final concentration of 10 μM of each compound at the time of incubation.

Description for HeLa cells: • (1) HeLa cells (ATCC CCL2 strain obtained from American Type Culture Collection; 1×10^6 cells/ml) were incubated for ten hours at 37° C. under 5% CO2 in DMEM-HG medium supplemented with 10% FBS, 100 units/ml penicillin, and 100 μg/ml streptomycin in a T75 flask. A 250 μl solution containing a candidate compound (10 μM-10 mM) was added to 25 ml of the above culture and incubated for an additional 1, 1.5, or 2 days at 37° C. under 5% CO2. Cells were recovered, washed with the above medium, and counted. The cells were resuspended in the above fresh medium so the medium contained 1×10^5 cells/ml. • (2) 150 μl of the suspension obtained in (1) was added into each well of a 96 well plate and the plate was incubated for four hours at 37° C. […] After ten hours, luminescence was measured with a luminescence detector to determine the viable cell count at excitation and detection wavelengths of 530 nm and 560 nm, respectively. Moreover, the viable cell count of the control, which was prepared in the same way except that a candidate compound solution was not added “Control”) or DMSO was added instead of a candidate compound “DMSO”), was also determined. […]

As to `Clc1ccc(N2CCN(Cc3c[nH]c4ncccc34)CC2)cc1` [Compound 1], the “160 kDa bands, presumably derived from NAIP” value with NAIP is given as “significantly strong 160 kDa bands”. Further, the “suppression of cell deformation and deciduation in the CA1 region” value in the assay with Mongolian gerbils is “dose-dependent suppression of cell deformation and deciduation in the CA1 region”. Also, in the assay on ALS model mice (8 mg/kg orally once a day), the “Days before symptom development (P < 0.01)” value came to 138.1 ± 1.9 days; the “Days between symptom development and death (P < 0.01)” value stood at 23.6 ± 2.0 days; the “Days of survival (P < 0.01)” value came to 161.7 ± 3.3 days. In the assay on ALS model mice (40 mg/kg orally once a day), the “Days before symptom development (P < 0.01)” value worked out at 145.2 ± 1.8 days; the “Days between symptom development and death (P < 0.01)” value stood at 28.9 ± 1.6 days; the “Days of survival (P < 0.01)” value amounted to 174.6 ± 2.4 days; the “effect on onset and on period between development of symptoms and death” value was “delaying the onset and prolonging the period between the development of symptoms and the death”.
As for `Cc1c(C2CCN(CCc3ccccc3)CC2)noc1-c1ccc(Cl)cc1` [Compound 2, 5-(4-chlorophenyl)-4-methyl-3-(1-(2-phenylethyl)piperidin 4-yl) isoxazole], the “Result (cell-death suppressing effect, tests of Example 3)” value in the assay on HeLa cells is “+ or ±”.
